{"source": "ChEMBL document CHEMBL4804284", "key": {"[1]": {"target": "Serine/threonine-protein kinase Chk2 (Homo sapiens) (UniProt O96017)", "test": "Inhibition of DNA-tagged human CHEK2 assessed as percent of control at 50000 nM by qPCR analysis relative to control", "set-up": "scale not given: the % may be the effect or the level left"}, "[2]": {"target": "Cyclin-dependent kinase-like 1 (Homo sapiens) (UniProt Q00532)", "test": "Inhibition of DNA-tagged human CDKL1 assessed as percent of control at 50000 nM by qPCR analysis relative to control", "set-up": "scale not given: the % may be the effect or the level left"}, "[3]": {"target": "G protein-coupled receptor kinase 4 (Homo sapiens) (UniProt P32298)", "sequence (P32298 whole entry, looked up)": "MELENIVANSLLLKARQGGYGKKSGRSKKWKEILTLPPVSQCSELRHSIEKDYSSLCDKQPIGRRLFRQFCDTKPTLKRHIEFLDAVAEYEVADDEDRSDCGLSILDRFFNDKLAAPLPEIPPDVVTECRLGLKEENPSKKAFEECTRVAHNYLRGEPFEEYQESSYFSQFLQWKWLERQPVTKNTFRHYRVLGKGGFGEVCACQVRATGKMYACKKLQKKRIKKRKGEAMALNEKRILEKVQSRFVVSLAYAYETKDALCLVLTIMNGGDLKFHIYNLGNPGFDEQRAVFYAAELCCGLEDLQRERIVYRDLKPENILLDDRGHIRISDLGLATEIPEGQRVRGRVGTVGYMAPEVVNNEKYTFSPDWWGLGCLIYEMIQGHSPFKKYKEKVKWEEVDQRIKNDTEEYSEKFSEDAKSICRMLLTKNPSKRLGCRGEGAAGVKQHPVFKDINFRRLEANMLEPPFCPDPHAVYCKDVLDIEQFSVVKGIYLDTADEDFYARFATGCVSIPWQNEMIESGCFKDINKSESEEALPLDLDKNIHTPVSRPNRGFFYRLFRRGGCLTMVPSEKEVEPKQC", "test": "Inhibition of DNA-tagged human GRK4 assessed as percent of control at 50000 nM by qPCR analysis relative to control", "set-up": "scale not given: the % may be the effect or the level left"}, "[4]": {"target": "cGMP-dependent protein kinase 1 (Homo sapiens) (UniProt Q13976)", "test": "Inhibition of DNA-tagged human PRKG1 assessed as percent of control at 50000 nM by qPCR analysis relative to control", "set-up": "scale not given: the % may be the effect or the level left"}, "[5]": {"target": "Serine/threonine-protein kinase D2 (Homo sapiens) (UniProt Q9BZL6)", "test": "Inhibition of DNA-tagged human PRKD2 assessed as percent of control at 50000 nM by qPCR analysis relative to control", "set-up": "scale not given: the % may be the effect or the level left"}, "[6]": {"target": "Tyrosine-protein kinase ITK/TSK (Homo sapiens) (UniProt Q08881)", "test": "Inhibition of DNA-tagged human ITK assessed as percent of control at 50000 nM by qPCR analysis relative to control", "set-up": "scale not given: the % may be the effect or the level left"}, "[7]": {"target": "Serine/threonine-protein kinase MRCK gamma (Homo sapiens) (UniProt Q6DT37)", "sequence (Q6DT37 whole entry)": "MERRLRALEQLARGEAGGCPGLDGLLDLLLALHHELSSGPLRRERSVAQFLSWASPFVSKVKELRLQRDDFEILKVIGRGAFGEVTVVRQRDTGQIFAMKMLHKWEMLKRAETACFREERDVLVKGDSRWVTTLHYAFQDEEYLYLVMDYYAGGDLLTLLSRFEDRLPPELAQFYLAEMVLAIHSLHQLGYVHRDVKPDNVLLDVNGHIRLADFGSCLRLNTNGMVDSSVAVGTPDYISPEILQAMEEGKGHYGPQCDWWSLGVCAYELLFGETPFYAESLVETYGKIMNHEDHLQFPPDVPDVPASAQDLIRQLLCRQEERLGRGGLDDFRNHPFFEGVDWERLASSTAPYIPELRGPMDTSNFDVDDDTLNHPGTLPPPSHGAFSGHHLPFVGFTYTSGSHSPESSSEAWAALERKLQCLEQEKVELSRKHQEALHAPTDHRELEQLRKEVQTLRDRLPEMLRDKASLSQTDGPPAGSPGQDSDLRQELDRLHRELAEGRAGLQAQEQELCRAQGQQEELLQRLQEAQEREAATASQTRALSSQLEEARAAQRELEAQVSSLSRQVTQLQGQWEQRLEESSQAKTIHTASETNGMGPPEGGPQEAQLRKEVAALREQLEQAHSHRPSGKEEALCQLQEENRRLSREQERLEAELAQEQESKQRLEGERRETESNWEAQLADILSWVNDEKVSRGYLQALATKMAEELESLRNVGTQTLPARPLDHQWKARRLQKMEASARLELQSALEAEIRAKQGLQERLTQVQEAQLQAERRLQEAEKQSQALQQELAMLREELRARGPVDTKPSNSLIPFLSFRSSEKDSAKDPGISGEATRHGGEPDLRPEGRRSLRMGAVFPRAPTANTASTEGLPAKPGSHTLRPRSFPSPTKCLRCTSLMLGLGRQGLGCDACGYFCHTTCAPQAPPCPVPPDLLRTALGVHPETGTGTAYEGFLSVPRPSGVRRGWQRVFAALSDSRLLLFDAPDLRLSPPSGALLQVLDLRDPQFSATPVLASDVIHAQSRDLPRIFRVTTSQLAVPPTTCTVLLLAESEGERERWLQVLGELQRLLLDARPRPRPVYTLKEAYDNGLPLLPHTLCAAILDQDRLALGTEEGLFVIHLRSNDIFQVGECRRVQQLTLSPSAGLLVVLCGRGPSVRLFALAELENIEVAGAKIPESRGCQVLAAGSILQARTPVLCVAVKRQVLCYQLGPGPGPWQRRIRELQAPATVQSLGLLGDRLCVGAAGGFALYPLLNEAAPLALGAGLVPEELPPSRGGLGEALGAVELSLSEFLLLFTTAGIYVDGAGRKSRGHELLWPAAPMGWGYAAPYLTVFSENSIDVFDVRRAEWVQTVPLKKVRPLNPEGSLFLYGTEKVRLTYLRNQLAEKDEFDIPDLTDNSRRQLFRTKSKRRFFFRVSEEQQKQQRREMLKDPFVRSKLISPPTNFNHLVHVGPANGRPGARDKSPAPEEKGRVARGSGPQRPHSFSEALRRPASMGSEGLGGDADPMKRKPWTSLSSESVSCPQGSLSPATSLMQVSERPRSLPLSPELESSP", "test": "Inhibition of DNA-tagged human DMPK2 assessed as percent of control at 50000 nM by qPCR analysis relative to control", "set-up": "scale not given: the % may be the effect or the level left"}, "[8]": {"target": "Serine/threonine-protein kinase mTOR (Homo sapiens) (UniProt P42345)", "test": "Inhibition of DNA-tagged human MTOR assessed as percent of control at 50000 nM by qPCR analysis relative to control", "set-up": "scale not given: the % may be the effect or the level left"}, "[9]": {"target": "LIM domain kinase 2 (Homo sapiens) (UniProt P53671)", "test": "Inhibition of DNA-tagged human LIMK2 assessed as percent of control at 50000 nM by qPCR analysis relative to control", "set-up": "scale not given: the % may be the effect or the level left"}, "[10]": {"test_system": "U-266", "test": "Cytotoxicity against human U-266 cells at 0.1-100 uM assessed as decrease in cell viability relative to control", "assay_type": "functional, cell-based"}, "[11]": {"target": "Protein-tyrosine kinase 6 (Homo sapiens) (UniProt Q13882)", "test": "Inhibition of DNA-tagged human BRK assessed as percent of control at 50000 nM by qPCR analysis relative to control", "set-up": "scale not given: the % may be the effect or the level left"}, "[12]": {"target": "Tyrosine-protein kinase Yes (Homo sapiens) (UniProt P07947)", "test": "Inhibition of DNA-tagged human YES assessed as percent of control at 50000 nM by qPCR analysis relative to control", "set-up": "scale not given: the % may be the effect or the level left"}, "[13]": {"target": "TRAF2 and NCK-interacting protein kinase (Homo sapiens) (UniProt Q9UKE5)", "test": "Inhibition of DNA-tagged human TNIK assessed as percent of control at 50000 nM by qPCR analysis relative to control", "set-up": "scale not given: the % may be the effect or the level left"}, "[14]": {"target": "Protein kinase C theta type (Homo sapiens) (UniProt Q04759)", "test": "Inhibition of DNA-tagged human PRKCQ assessed as percent of control at 50000 nM by qPCR analysis relative to control", "set-up": "scale not given: the % may be the effect or the level left"}, "[15]": {"test_system": "Hepatocyte growth factor receptor (Homo sapiens), P08581 [Y1235D]", "test": "Inhibition of DNA-tagged human MET Y1235D mutant assessed as percent of control at 50000 nM by qPCR analysis relative to control", "set-up": "scale not given: the % may be the effect or the level left"}, "[16]": {"target": "Mitogen-activated protein kinase 13 (Homo sapiens) (UniProt O15264)", "sequence (O15264 whole entry)": "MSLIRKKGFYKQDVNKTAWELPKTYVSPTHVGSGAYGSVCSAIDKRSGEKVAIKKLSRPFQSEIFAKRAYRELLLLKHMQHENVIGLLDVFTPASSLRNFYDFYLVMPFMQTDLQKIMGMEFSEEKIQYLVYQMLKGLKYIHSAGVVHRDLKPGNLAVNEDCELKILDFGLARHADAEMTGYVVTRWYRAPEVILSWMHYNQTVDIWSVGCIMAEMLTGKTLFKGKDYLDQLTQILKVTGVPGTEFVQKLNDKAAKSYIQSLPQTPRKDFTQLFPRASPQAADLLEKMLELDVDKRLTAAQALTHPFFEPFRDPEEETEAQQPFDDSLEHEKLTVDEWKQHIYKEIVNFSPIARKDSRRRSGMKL", "test": "Inhibition of DNA-tagged human p38-delta assessed as percent of control at 50000 nM by qPCR analysis relative to control", "set-up": "scale not given: the % may be the effect or the level left"}, "[17]": {"target": "Serine/threonine-protein kinase RIO1 (Homo sapiens) (UniProt Q9BRS2)", "test": "Inhibition of DNA-tagged human RIOK1 assessed as percent of control at 50000 nM by qPCR analysis relative to control", "set-up": "scale not given: the % may be the effect or the level left"}, "[18]": {"test_system": "MV4-11", "test": "Cytotoxicity against human MV4-11 cells at 0.1-100 uM assessed as decrease in cell viability relative to control", "assay_type": "functional, cell-based"}, "[19]": {"target": "Dual specificity mitogen-activated protein kinase kinase 5 (Homo sapiens) (UniProt Q13163)", "test": "Inhibition of DNA-tagged human MEK5 assessed as percent of control at 50000 nM by qPCR analysis relative to control", "set-up": "scale not given: the % may be the effect or the level left"}, "[20]": {"target": "Mitogen-activated protein kinase 12 (Homo sapiens) (UniProt P53778)", "test": "Inhibition of DNA-tagged human p38-gamma assessed as percent of control at 50000 nM by qPCR analysis relative to control", "set-up": "scale not given: the % may be the effect or the level left"}, "[21]": {"target": "ALK tyrosine kinase receptor (Homo sapiens) (UniProt Q9UM73)", "sequence (Q9UM73 19-1620 limits assumed)": "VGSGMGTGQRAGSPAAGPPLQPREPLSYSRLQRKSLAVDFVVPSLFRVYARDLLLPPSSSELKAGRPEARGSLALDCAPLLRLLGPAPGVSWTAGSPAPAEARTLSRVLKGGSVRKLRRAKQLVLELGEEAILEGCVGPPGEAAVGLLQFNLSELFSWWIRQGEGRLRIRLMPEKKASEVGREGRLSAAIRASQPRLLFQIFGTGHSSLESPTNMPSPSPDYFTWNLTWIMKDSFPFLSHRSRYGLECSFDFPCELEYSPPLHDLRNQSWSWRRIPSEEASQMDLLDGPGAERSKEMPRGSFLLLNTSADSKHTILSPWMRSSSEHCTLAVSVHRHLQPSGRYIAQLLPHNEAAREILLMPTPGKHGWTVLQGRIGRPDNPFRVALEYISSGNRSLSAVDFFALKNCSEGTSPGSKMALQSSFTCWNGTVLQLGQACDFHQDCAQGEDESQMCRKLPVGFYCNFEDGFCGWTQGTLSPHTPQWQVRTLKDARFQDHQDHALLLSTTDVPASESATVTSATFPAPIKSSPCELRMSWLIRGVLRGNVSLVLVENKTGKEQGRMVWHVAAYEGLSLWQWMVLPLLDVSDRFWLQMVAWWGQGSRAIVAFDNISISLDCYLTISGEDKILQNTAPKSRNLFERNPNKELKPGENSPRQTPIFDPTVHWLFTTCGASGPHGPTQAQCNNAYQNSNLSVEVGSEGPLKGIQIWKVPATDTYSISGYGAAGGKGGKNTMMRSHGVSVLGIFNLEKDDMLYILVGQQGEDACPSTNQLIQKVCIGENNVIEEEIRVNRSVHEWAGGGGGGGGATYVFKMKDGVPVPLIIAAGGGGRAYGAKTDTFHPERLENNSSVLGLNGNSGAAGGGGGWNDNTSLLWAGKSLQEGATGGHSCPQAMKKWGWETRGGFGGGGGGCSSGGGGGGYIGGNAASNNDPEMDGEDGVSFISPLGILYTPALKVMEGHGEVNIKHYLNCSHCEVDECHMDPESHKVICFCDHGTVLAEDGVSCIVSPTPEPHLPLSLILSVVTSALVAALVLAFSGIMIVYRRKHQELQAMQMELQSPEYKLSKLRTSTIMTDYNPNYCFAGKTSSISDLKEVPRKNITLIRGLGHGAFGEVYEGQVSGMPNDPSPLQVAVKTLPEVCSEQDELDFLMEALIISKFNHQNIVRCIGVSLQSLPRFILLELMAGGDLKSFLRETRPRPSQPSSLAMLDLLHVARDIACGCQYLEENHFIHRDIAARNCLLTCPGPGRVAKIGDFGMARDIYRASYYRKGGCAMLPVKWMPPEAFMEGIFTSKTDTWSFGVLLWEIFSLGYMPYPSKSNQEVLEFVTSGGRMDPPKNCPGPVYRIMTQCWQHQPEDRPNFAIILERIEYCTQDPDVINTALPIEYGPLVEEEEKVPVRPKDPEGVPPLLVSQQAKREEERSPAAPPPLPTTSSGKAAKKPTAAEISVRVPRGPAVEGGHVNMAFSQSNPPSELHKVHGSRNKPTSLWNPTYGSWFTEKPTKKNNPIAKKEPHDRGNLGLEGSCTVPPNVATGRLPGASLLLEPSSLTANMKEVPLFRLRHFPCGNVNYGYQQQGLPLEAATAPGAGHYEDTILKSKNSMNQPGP", "test": "Inhibition of DNA-tagged human ALK assessed as percent of control at 50000 nM by qPCR analysis relative to control", "set-up": "scale not given: the % may be the effect or the level left"}, "[22]": {"target": "Dual specificity mitogen-activated protein kinase kinase 2 (Homo sapiens) (UniProt P36507)", "test": "Inhibition of DNA-tagged human MEK2 assessed as percent of control at 50000 nM by qPCR analysis relative to control", "set-up": "scale not given: the % may be the effect or the level left"}, "[23]": {"target": "BMP-2-inducible protein kinase (Homo sapiens) (UniProt Q9NSY1)", "test": "Inhibition of DNA-tagged human BIKE assessed as percent of control at 50000 nM by qPCR analysis relative to control", "set-up": "scale not given: the % may be the effect or the level left"}, "[24]": {"target": "Tyrosine-protein kinase JAK1 (Homo sapiens) (UniProt P23458)", "test": "Inhibition of DNA-tagged human JAK1 JH1 catalytic domain assessed as percent of control at 50000 nM by qPCR analysis relative to control", "set-up": "scale not given: the % may be the effect or the level left"}, "[25]": {"target": "Cyclin-dependent kinase 4/cyclin D1 (Homo sapiens) (UniProt P11802+P24385)", "test": "Inhibition of DNA-tagged human CDK4/cyclin D1 assessed as percent of control at 50000 nM by qPCR analysis relative to control", "assay_type": "protein-complex assay", "set-up": "scale not given: the % may be the effect or the level left"}, "[26]": {"target": "Dual specificity protein kinase CLK1 (Homo sapiens) (UniProt P49759)", "sequence (P49759 whole entry, looked up)": "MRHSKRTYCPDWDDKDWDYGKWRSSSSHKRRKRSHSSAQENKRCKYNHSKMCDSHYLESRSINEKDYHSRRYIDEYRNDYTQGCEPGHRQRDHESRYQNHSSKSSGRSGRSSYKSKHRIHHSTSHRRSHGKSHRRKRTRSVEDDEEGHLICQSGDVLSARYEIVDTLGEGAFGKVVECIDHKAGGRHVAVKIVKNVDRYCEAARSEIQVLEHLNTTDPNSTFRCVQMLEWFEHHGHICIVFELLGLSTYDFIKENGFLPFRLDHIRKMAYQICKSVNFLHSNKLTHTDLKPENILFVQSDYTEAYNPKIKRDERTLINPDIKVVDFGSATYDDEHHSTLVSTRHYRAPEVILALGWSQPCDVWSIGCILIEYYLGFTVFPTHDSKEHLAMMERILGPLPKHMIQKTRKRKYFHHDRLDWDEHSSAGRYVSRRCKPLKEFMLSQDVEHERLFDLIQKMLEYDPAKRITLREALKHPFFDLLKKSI", "test": "Inhibition of DNA-tagged human CLK1 assessed as percent of control at 50000 nM by qPCR analysis relative to control", "set-up": "scale not given: the % may be the effect or the level left"}, "[27]": {"target": "Interleukin-1 receptor-associated kinase 4 (Homo sapiens) (UniProt Q9NWZ3)", "sequence (Q9NWZ3 whole entry)": "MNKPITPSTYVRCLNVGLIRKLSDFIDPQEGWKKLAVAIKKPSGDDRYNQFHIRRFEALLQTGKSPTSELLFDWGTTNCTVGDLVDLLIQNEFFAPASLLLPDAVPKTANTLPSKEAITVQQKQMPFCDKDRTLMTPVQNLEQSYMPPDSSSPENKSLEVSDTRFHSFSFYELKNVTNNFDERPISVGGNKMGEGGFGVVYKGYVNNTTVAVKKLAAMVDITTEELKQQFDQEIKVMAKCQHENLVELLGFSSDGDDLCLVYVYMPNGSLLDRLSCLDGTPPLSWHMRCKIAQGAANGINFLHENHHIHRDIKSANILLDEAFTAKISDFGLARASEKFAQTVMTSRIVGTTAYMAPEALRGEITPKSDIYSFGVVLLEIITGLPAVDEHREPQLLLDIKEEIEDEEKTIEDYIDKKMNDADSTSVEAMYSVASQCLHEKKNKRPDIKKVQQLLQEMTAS", "test": "Inhibition of DNA-tagged human IRAK4 assessed as percent of control at 50000 nM by qPCR analysis relative to control", "set-up": "scale not given: the % may be the effect or the level left"}, "[28]": {"target": "Proto-oncogene tyrosine-protein kinase ROS (Homo sapiens) (UniProt P08922)", "test": "Inhibition of DNA-tagged human ROS1 assessed as percent of control at 50000 nM by qPCR analysis relative to control", "set-up": "scale not given: the % may be the effect or the level left"}, "[29]": {"target": "Tyrosine-protein kinase Srms (Homo sapiens) (UniProt Q9H3Y6)", "test": "Inhibition of DNA-tagged human SRMS assessed as percent of control at 50000 nM by qPCR analysis relative to control", "set-up": "scale not given: the % may be the effect or the level left"}, "[30]": {"target": "Mitogen-activated protein kinase kinase kinase 3 (Homo sapiens) (UniProt Q99759)", "test": "Inhibition of DNA-tagged human MAP3K3 assessed as percent of control at 50000 nM by qPCR analysis relative to control", "set-up": "scale not given: the % may be the effect or the level left"}, "[31]": {"target": "Mitogen-activated protein kinase kinase kinase 9 (Homo sapiens) (UniProt P80192)", "test": "Inhibition of DNA-tagged human MLK1 assessed as percent of control at 50000 nM by qPCR analysis relative to control", "set-up": "scale not given: the % may be the effect or the level left"}}, "note": "Active and inactive are the calls of the source. No cut-off for these calls is given here."}
{"smiles": "CN1C(=O)/C(=C2/C(=O)Nc3ccccc32)c2ccccc21", "values": [{"measurement": "Activity", "setting": "[1]", "result": 100, "unit": "%"}, {"measurement": "Activity", "setting": "[2]", "result": 79, "unit": "%"}, {"measurement": "Activity", "setting": "[3]", "result": 100, "unit": "%"}, {"measurement": "Activity", "setting": "[4]", "result": 95, "unit": "%"}, {"measurement": "Activity", "setting": "[5]", "result": 87, "unit": "%"}, {"measurement": "Activity", "setting": "[6]", "result": 78, "unit": "%"}, {"measurement": "Activity", "setting": "[7]", "result": 92, "unit": "%"}, {"measurement": "Activity", "setting": "[8]", "result": 100, "unit": "%"}, {"measurement": "Activity", "setting": "[9]", "result": 100, "unit": "%"}, {"measurement": "Activity", "setting": "[10]", "result": "Active"}, {"measurement": "Activity", "setting": "[11]", "result": 100, "unit": "%"}, {"measurement": "Activity", "setting": "[12]", "result": 86, "unit": "%"}, {"measurement": "Activity", "setting": "[13]", "result": 100, "unit": "%"}, {"measurement": "Activity", "setting": "[14]", "result": 99, "unit": "%"}, {"measurement": "Activity", "setting": "[15]", "result": 99, "unit": "%"}, {"measurement": "Activity", "setting": "[16]", "result": 100, "unit": "%"}, {"measurement": "Activity", "setting": "[17]", "result": 87, "unit": "%"}, {"measurement": "Activity", "setting": "[18]", "result": "Active"}, {"measurement": "Activity", "setting": "[19]", "result": 97, "unit": "%"}, {"measurement": "Activity", "setting": "[20]", "result": 92, "unit": "%"}, {"measurement": "Activity", "setting": "[21]", "result": 97, "unit": "%"}, {"measurement": "Activity", "setting": "[22]", "result": 89, "unit": "%"}, {"measurement": "Activity", "setting": "[23]", "result": 95, "unit": "%"}, {"measurement": "Activity", "setting": "[24]", "result": 94, "unit": "%"}, {"measurement": "Activity", "setting": "[25]", "result": 81, "unit": "%"}, {"measurement": "Activity", "setting": "[26]", "result": 100, "unit": "%"}, {"measurement": "Activity", "setting": "[27]", "result": 75, "unit": "%"}, {"measurement": "Activity", "setting": "[28]", "result": 81, "unit": "%"}, {"measurement": "Activity", "setting": "[29]", "result": 88, "unit": "%"}, {"measurement": "Activity", "setting": "[30]", "result": 94, "unit": "%"}, {"measurement": "Activity", "setting": "[31]", "result": 100, "unit": "%"}]}
